The experiment addresses Serine/threonine-protein kinase 33 (Homo sapiens) (UniProt Q9BYT3). Briefly: STK33 kinase inhibitors, potency, dose response, biochemical, ADP-Glo luminescence, dry powder (AID 588632). As to conditions: purified STK33, MBP phosphorylation; for activity change, negative = inhibition: at 10 µM (top of the series).

The text below walks through data of PubChem BioAssay AID588632 (Broad Institute, 2011).

Inconclusive results are not listed. Calls of active or inactive are those of the source.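 How the source made its calls: active means compounds lowering signal with fitted half-maximal concentration within ten times the top tested dose in every test run; inconclusive means test runs disagree, or a run had a weak flat or poor fit; inactive means every test run inactive.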

As usually defined, the AC50 is the concentration giving half of the maximal activity seen.

Serine/threonine-protein kinase 33 (Homo sapiens), sequence (Q9BYT3 whole entry, looked up): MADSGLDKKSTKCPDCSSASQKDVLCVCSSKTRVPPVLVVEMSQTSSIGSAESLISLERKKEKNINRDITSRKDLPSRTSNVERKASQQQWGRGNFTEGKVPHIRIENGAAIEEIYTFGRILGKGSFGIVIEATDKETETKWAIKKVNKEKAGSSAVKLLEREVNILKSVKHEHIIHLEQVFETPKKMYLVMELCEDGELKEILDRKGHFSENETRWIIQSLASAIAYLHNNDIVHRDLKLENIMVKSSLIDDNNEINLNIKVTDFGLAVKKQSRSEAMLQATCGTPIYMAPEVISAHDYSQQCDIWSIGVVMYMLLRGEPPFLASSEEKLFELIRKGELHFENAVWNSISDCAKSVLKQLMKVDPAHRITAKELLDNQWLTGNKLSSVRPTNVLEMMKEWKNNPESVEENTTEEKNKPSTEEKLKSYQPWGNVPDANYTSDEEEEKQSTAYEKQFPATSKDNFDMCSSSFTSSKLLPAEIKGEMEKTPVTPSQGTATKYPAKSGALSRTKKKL

Take `CCC(CO)Oc1cc(NCc2ccccc2)c2ncn(C(C)C)c2c1` (stereo not drawn): the “activity change, negative = inhibition” value was “inactive”. Turning to `COc1cc(N2CCN(C)CC2)ccc1Nc1ncc2c(n1)N1CCC[C@H]1CC(=O)N2C`, the AC50 is 0.409 µM. Take `CN1CCN(c2ccc(Nc3ncc4c(n3)N(C)c3ccccc3C(=O)N4C)cc2)CC1`: the AC50 is 1.13 µM. Still for that read-out and setting: as for `O=C(Nc1ccccc1-c1nc2ccccc2[nH]c1=O)c1cccs1`, the figure is 0.331 µM; as for `O=C1NC(=NCc2ccccc2)S/C1=C/c1ccc(O)cc1`, 0.522 µM. Consider `CCOc1ccccc1C(=O)Nc1cc(Cl)ccc1O`, for which the half-maximal activity concentration (AC50) was 1.25 µM. For the molecule `COc1cc(C(=O)NC2CCN(C)CC2)ccc1Nc1ncc2c(n1)N(C1CCC(O)CC1)CCC(=O)N2C` (stereo not drawn), the AC50 is 1.18 µM. The same measure, in the same setting: under `COc1cc(/C=C2\SC(N)=NC2=O)ccc1O` stands 0.574 µM. Still for that read-out and setting: as for `O=C1NCCCc2c1oc1ccc(O)cc21`, the figure is 0.939 µM.

For `CCC(CO)Oc1cc(NC(=O)c2ccc([N+](=O)[O-])cc2)c2ncn(C(C)C)c2c1` (stereo not drawn), the “activity change, negative = inhibition” value was “inactive”.

As for `CC(C)n1cnc2c(Nc3cccc(Cl)c3)nc(NCCO)nc21`, the AC50 is 0.632 µM. Regarding `CCC(CO)Oc1cc(NC(=O)c2ccc(C)cc2)c2ncn(C(C)C)c2c1` (stereo not drawn), the “activity change, negative = inhibition” value is “inactive”.

Turning to `CCC(CO)Oc1cc(NC(=O)c2ccccc2Cl)c2ncn(C(C)C)c2c1` (stereo not drawn), the “activity change, negative = inhibition” value is “inactive”.

As for `COc1cc(N2CCN(C)CC2)ccc1Nc1ncc2c(n1)N(C1CCCC1)C(C)CC(=O)N2C` (stereo not drawn), the AC50 is 0.91 µM.

For the molecule `CC(Oc1ccc2c(c1)c1ccnc3c4ccccc4c(=O)n2c13)C(=O)NCCN1CCOCC1` (stereo not drawn), the AC50 is 0.168 µM. Take `CCC(CO)Oc1cc(NC(=O)c2ccc(Cl)cc2)c2ncn(C(C)C)c2c1` (stereo not drawn): the “activity change, negative = inhibition” value was “inactive”. Still for that read-out and setting: under `CC(C)n1cnc2c(NCc3ccccc3)cc(OCCCN3CCOCC3)cc21` stands “inactive”.

As for `Oc1ccc(Nc2nc(-c3ccccc3O)nc3ccccc23)cc1`, the AC50 was 0.811 µM. With `CC(=O)N(C)c1ccc(N=Cc2c(O)ccc3ccccc23)cc1`, the AC50 is 1.13 µM. `COc1cc(N2CCC(N3CCN(C)CC3)CC2)ccc1Nc1ncc2c(n1)N(C1CCCC1)C(C)CC(=O)N2C` (stereo not drawn): the concentration at half-maximal activity (AC50) was 2.2 µM. Same read-out and setting: under `COc1cc(N2CCC(N3CCN(C)CC3)CC2)ccc1Nc1ncc2c(n1)N1CCC[C@H]1CC(=O)N2C` stands 1.88 µM.

`COc1cc(N2CCC(O)CC2)ccc1Nc1ncc2c(n1)N1CCc3cccc(c31)C(=O)N2C`: the AC50 is 0.509 µM. On the same count and under the same terms, as for `COc1cc(/C=C2\SC(=Nc3ccccc3OC)NC2=O)ccc1O`, the figure is 0.314 µM.

As to `COC(=O)c1ccc(COc2ccccc2/C=C/C(=O)c2ccc(OCC(=O)O)cc2)cc1`, the AC50 was 0.4 µM.

Regarding `CCC(CO)Oc1cc(NC(=O)c2ccccc2C)c2ncn(C(C)C)c2c1` (stereo not drawn), the “activity change, negative = inhibition” value is “inactive”.

For `CCC(CO)Oc1cc(NC(=O)c2ccc(OC)cc2)c2ncn(C(C)C)c2c1` (stereo not drawn), the “activity change, negative = inhibition” value was “inactive”. Same read-out and setting: as for `CCC(CO)Oc1cc(NC(=O)c2ccccc2)c2ncn(C(C)C)c2c1` (stereo not drawn), the entry is “inactive”. With `COc1cc(N2CCN(C)CC2)ccc1Nc1ncc2c(n1)N(C)c1ccccc1C(=O)N2C`, the AC50 is 1.6 µM. Regarding `CCC(CO)Oc1cc(NC(=O)c2cccc(F)c2)c2ncn(C(C)C)c2c1` (stereo not drawn), the “activity change, negative = inhibition” value was “inactive”.

Turning to `CCC(CO)Oc1cc(NC(=O)c2cccc(C)c2)c2ncn(C(C)C)c2c1` (stereo not drawn), the “activity change, negative = inhibition” value was “inactive”.

Consider `CCC(CO)Oc1cc(NC(=O)c2ccccc2N)c2ncn(C(C)C)c2c1` (stereo not drawn), for which the “activity change, negative = inhibition” value is “inactive”. Still for that read-out and setting: under `CCC(CO)Oc1cc(NC(=O)c2ccccc2OC)c2ncn(C(C)C)c2c1` (stereo not drawn) stands “inactive”.

For `CCC(CO)Oc1cc(NC(=O)c2cccc(N)c2)c2ncn(C(C)C)c2c1` (stereo not drawn), the “activity change, negative = inhibition” value is “inactive”. Same read-out and setting: as for `CCC(CO)Oc1cc(NC(=O)c2cccc(OC)c2)c2ncn(C(C)C)c2c1` (stereo not drawn), the entry is “inactive”; as for `CCC(CO)Oc1cc(NC(=O)c2cccc(Cl)c2)c2ncn(C(C)C)c2c1` (stereo not drawn), “inactive”. For `Nc1nc(-c2cc(O)ccc2[N+](=O)[O-])cc(-c2ccccc2)c1[N+](=O)[O-]`, the AC50 is 0.151 µM. The same measure, in the same setting: under `COc1cc(N2CCN(C)CC2)ccc1Nc1ncc2c(n1)N(C)c1sccc1C(=O)N2C` stands 1.56 µM.

Take `CCC(CO)Oc1cc(NCc2ccccc2)c2ncn(C3CCCC3)c2c1` (stereo not drawn): the “activity change, negative = inhibition” value was “inactive”. The same measure, in the same setting: under `CCC(CO)Oc1cc(NC(=O)c2ccc(F)cc2)c2ncn(C(C)C)c2c1` (stereo not drawn) stands “inactive”.

Take `COc1cc(NCc2ccccc2)c2ncn(C(C)C)c2c1`: the “activity change, negative = inhibition” value is “inactive”.

Regarding `Cc1ncc(/C=C2\C(=O)Nc3ccccc32)[nH]1`, the AC50 is 0.795 µM. The same measure, in the same setting: under `COc1cc(/C=N/n2c(-c3ccccc3)n[nH]c2=S)ccc1O` stands 0.695 µM; under `CCCn1c(NC(=O)c2cccc(S(=O)(=O)N3CCCC3)c2)nc2ccccc21`, 0.122 µM. On to `CCC(CO)Oc1cc(NC(=O)c2cccc([N+](=O)[O-])c2)c2ncn(C(C)C)c2c1` (stereo not drawn), for which the “activity change, negative = inhibition” value was “inactive”. As to `CCC(CO)Oc1cc(NC(=O)c2ccc(N)cc2)c2ncn(C(C)C)c2c1` (stereo not drawn), the “activity change, negative = inhibition” value was “inactive”.

Regarding `COCCCOc1cc(NCc2ccccc2)c2ncn(C(C)C)c2c1`, the “activity change, negative = inhibition” value was “inactive”. For the molecule `COc1cc(C(=O)N2CCC(N3CCN(C)CC3)CC2)ccc1Nc1ncc2c(n1)N(C)c1ccccc1C(=O)N2C`, the concentration at half-maximal activity (AC50) was 6.45 µM. Same read-out and setting: as for `O=C(Nc1ccccc1-c1ccccc1)c1ccc(Br)o1`, the figure is 1.58 µM.
